{"source": "patent EP0580185A1", "about": "“Medicaments” (THE WELLCOME FOUNDATION LIMITED, priority 1988, dated 1990)", "key": {"Plasmodium Falciparum": {"tested_on": "Plasmodium Falciparum", "test": "Activity against Plasmodium falciparum in vitro, G-3H-hypoxanthine incorporation", "format": "cell-based", "conditions": "cultures incubated for 48 hours, RPMI 1640 medium + 10% human plasma, read-out: In vitro IC₅₀", "method": "The test method was modification of that described by Desjardins et al., Antimicrob. Agents and Chemotherapy 1979, 16, 710-718. Compounds were dissolved in ethanol at a concentration of 4.8x10⁻³M and dilutions down to 1x10⁻⁴M were made. The drug solutions were serially diluted using RPMI 1640 medium + 10% human plasma in microtitration plates. Parasitised and fresh red blood cells were added, together with G-³H-hypoxanthine, in RPMI 1640 medium + 10% human plasma and the cultures incubated for 48 hours. Cultures were then harvested, the particulate contents collected on a glass fibre filter paper and washed copiously with water. The filter papers were dried and the radioactivity measured using a scintillation counter. Infected untreated and uninfected untreated cultures were included as controls."}, "Plasmodium yoelii": {"tested_on": "Plasmodium yoelii", "test": "Activity against Plasmodium yoelii in vivo, tail-blood smears at 96 hours", "design": "species or system mice", "conditions": "for ED50: Plasmodium yoelii, in Mus musculus, 96 h", "method": "The naphthoquinone was suspended in 0.25% (w/v) celacol in water by milling for 16-24 hours at 26°C. The suspensions were subsequently serially diluted with 0.25% (w/v) celacol in water. At time 0, 0.1 ml of a suspension of 5x10⁶ P.yoelii-parasitised red blood cells/ml of phosphate saline were injected intravenously into 15-20 g mice through a tail vein. Groups of 5 mice per treatment were dosed orally at times 6, 22, 30, 46, 54, 70 and 78 hours with 0.2 ml of the drug suspension. The compound of Example 4 was also administered intravenously. Tail-blood smears were taken at 96 hours, stained with Giemsa and the percentage of red blood cells infected determined and compared to untreated, infected controls. Percent inhibition was correllated with dose to provide ED values."}, "Pneumocystis carinii": {"tested_on": "Pneumocystis carinii", "test": "Prophylaxis of Pneumocystis carinii pneumonitis in dexamethasone-treated rats, lung histopathology score", "format": "in vivo", "conditions": "for No.with P. carinii Pneumonitis Total: per rats evaluated", "method": "A: 2-[trans-4-(4-chlorophenyl)cyclohexyl]-3-hydroxy-1,4-naphthoquinone B: 2-[cis-4-(4-chlorophenyl)cyclohexyl]-3-hydroxy-1,4-naphthoquinone C: 2-[4-(4-chlorophenyl)cyclohexyl]-3-chloro-1,4-naphthoquinone D: 2-(4-t-butylcyclohexyl)-3-hydroxy-1,4-naphthoquinone E: 2-(4-t-butylcyclohexylmethyl)-3-hydroxy-1,4-naphthoquinone a) Prophylaxis Groups of 10 rats were treated with dexamethasone to allow latent Pneumocystis carinii infection to develop. Tetracycline was also administered to protect against bacterial infections. Test compound A was administered, by gavage, from day 4 of the dexamethasone treatment, at a dose of 100 mg/kg/day. Two control groups of rats were treated with dexamethasone and tetracycline only. A further group of rats was given cotrimoxazole (trimethoprim + sulphamethoxazole, 50 + 250 mg/kg/day, orally) in place of the test compound. At the end of the test period the animals were sacrificed and autopsies carried out. The lungs were removed and the right lung bisected. An imprint was made onto microscope slides and stained with toluidine blue. One half of the lung was placed in formalin, processed in paraffin blocks, sectioned and stained by the Gomori methanamine silver nitrate method. After autopsy the extent of P.carinii pneumonitis was scored under coded study as none if no organism seen; 1+ if P.carinii cysts seen sparsely distributed with less than one per 25 high power field (h.p.f.); 2+ if focal areas of P.carinii pneumonitis surrounded by 10 to 25 h.p.f of normal lung and 3+ if lung diffusely and extensively involved with organisms in almost all h.p.f.s.\nb) Prophylaxis A further series of tests was carried out using the same general method as described above. Test compound A was administered at various dose levels, by gavage and in the diet."}, "[1]": {"test": "Water-solubility compared with the parent compound", "format": "physicochemical", "conditions": "as compared with the parent compound of formula (V)"}, "[2]": {"tested_on": "Pneumocystis carinii pneumonia", "conditions": "cited from earlier work"}, "[3]": {"conditions": "po, dosed orally at 6, 22, 30, 46, 54, 70 and 78 hours, read-out: In vivo ED₅₀ oral"}, "[4]": {"conditions": "100 mg per kg/day, gavage, group of 10 rats"}, "[5]": {"conditions": "100 mg per kg/day, gavage, group of 15 rats"}, "[6]": {"conditions": "100 mg/kg/day by gavage from day 4 of dexamethasone treatment"}}, "note": "pIC50: −log10 of the molar value. Read-outs that look alike come from different tables or passages of the source.", "data": [{"smiles": "CN(C)c1ccc(C(=O)OC2=C([C@H]3CC[C@H](c4ccc(Cl)cc4)CC3)C(=O)c3ccccc3C2=O)cc1", "note": "[Example 7, 2-[trans-4-(4-Chlorophenyl)cyclohexyl]-3-(4-dimethylaminobenzoyloxy)-1,4-naphthoquinone]", "values": [{"measurement": "pIC50", "setting": "Plasmodium Falciparum", "value": 6.66}, {"measurement": "ED50", "setting": "Plasmodium yoelii; [3]", "value": 0.12, "unit": "mg/kg"}]}, {"smiles": "CN(C)CCCOC1=C([C@H]2CC[C@H](c3ccc(Cl)cc3)CC2)C(=O)c2ccccc2C1=O.Cl", "note": "[Example 4, 2-[trans-4-(4-Chlorophenyl)cyclohexyl]-3-(3-dimethylaminopropoxy)-1,4-naphthoquinone hydrochloride]", "values": [{"measurement": "pIC50", "setting": "Plasmodium Falciparum", "value": 7.23}, {"measurement": "ED50", "setting": "Plasmodium yoelii; iv, administered intravenously, read-out: In vivo ED₅₀ i.v.", "value": 2.08, "unit": "mg/kg"}, {"measurement": "ED50", "setting": "Plasmodium yoelii; [3]", "value": 0.61, "unit": "mg/kg"}, {"measurement": "In vivo ED₅₀ oral", "setting": "Plasmodium yoelii; dosed orally at 6, 22, 30, 46, 54, 70 and 78 hours, hydrochloride, 5760 min", "value": 0.68, "unit": "mg/kg"}]}, {"smiles": "O=C1C(O)=C([C@H]2CC[C@H](c3ccc(Cl)cc3)CC2)C(=O)c2ccccc21", "note": "[Example 1C, 2-[trans-4-(4-Chlorophenyl)cyclohexyl]-3-hydroxy-1,4-naphthoquinone]", "values": [{"measurement": "No.with P. carinii Pneumonitis 1+", "setting": "Pneumocystis carinii; 10 mg per kg/day, gavage", "value": 1}, {"measurement": "No.with P. carinii Pneumonitis 2+", "setting": "Pneumocystis carinii; 10 mg per kg/day, gavage", "value": 0}, {"measurement": "No.with P. carinii Pneumonitis 3+", "setting": "Pneumocystis carinii; 10 mg per kg/day, gavage", "value": 8}, {"measurement": "No.with P. carinii Pneumonitis None", "setting": "Pneumocystis carinii; 10 mg per kg/day, gavage", "value": 1}, {"measurement": "No.with P. carinii Pneumonitis Total", "setting": "Pneumocystis carinii; 10 mg per kg/day, gavage", "value": "9/10"}, {"measurement": "No.with P. carinii Pneumonitis 1+", "setting": "Pneumocystis carinii; 25 mg per kg/day, gavage", "value": 2}, {"measurement": "No.with P. carinii Pneumonitis 2+", "setting": "Pneumocystis carinii; 25 mg per kg/day, gavage", "value": 1}, {"measurement": "No.with P. carinii Pneumonitis 3+", "setting": "Pneumocystis carinii; 25 mg per kg/day, gavage", "value": 4}, {"measurement": "No.with P. carinii Pneumonitis None", "setting": "Pneumocystis carinii; 25 mg per kg/day, gavage", "value": 1}, {"measurement": "No.with P. carinii Pneumonitis Total", "setting": "Pneumocystis carinii; 25 mg per kg/day, gavage", "value": "7/8"}, {"measurement": "No.with P. carinii Pneumonitis 1+", "setting": "Pneumocystis carinii; 50 mg per kg/day, gavage", "value": 0}, {"measurement": "No.with P. carinii Pneumonitis 2+", "setting": "Pneumocystis carinii; 50 mg per kg/day, gavage", "value": 1}, {"measurement": "No.with P. carinii Pneumonitis 3+", "setting": "Pneumocystis carinii; 50 mg per kg/day, gavage", "value": 1}, {"measurement": "No.with P. carinii Pneumonitis None", "setting": "Pneumocystis carinii; 50 mg per kg/day, gavage", "value": 7}, {"measurement": "No.with P. carinii Pneumonitis Total", "setting": "Pneumocystis carinii; 50 mg per kg/day, gavage", "value": "2/9"}, {"measurement": "No.with P. carinii Pneumonitis 1+", "setting": "Pneumocystis carinii; [4]", "value": 1}, {"measurement": "No.with P. carinii Pneumonitis 2+", "setting": "Pneumocystis carinii; [4]", "value": 0}, {"measurement": "No.with P. carinii Pneumonitis 3+", "setting": "Pneumocystis carinii; [4]", "value": 0}, {"measurement": "No.with P. carinii Pneumonitis None", "setting": "Pneumocystis carinii; [4]", "value": 8}, {"measurement": "No.with P. carinii Pneumonitis Total", "setting": "Pneumocystis carinii; [4]", "value": "1/9"}, {"measurement": "No.with P. carinii Pneumonitis 1+", "setting": "Pneumocystis carinii; [5]", "value": 0}, {"measurement": "No.with P. carinii Pneumonitis 2+", "setting": "Pneumocystis carinii; [5]", "value": 0}, {"measurement": "No.with P. carinii Pneumonitis 3+", "setting": "Pneumocystis carinii; [5]", "value": 0}, {"measurement": "No.with P. carinii Pneumonitis None", "setting": "Pneumocystis carinii; [5]", "value": 9}, {"measurement": "No.with P. carinii Pneumonitis Total", "setting": "Pneumocystis carinii; [5]", "value": "0/9"}, {"measurement": "No.with P. carinii Pneumonitis 1+", "setting": "Pneumocystis carinii; 100 mg per kg/day, rations", "value": 0}, {"measurement": "No.with P. carinii Pneumonitis 2+", "setting": "Pneumocystis carinii; 100 mg per kg/day, rations", "value": 0}, {"measurement": "No.with P. carinii Pneumonitis 3+", "setting": "Pneumocystis carinii; 100 mg per kg/day, rations", "value": 0}, {"measurement": "No.with P. carinii Pneumonitis None", "setting": "Pneumocystis carinii; 100 mg per kg/day, rations", "value": 10}, {"measurement": "No.with P. carinii Pneumonitis Total", "setting": "Pneumocystis carinii; 100 mg per kg/day, rations", "value": "0/10"}, {"measurement": "No of rats with P.carinii Pneumonitis 1+", "setting": "Pneumocystis carinii; [6]", "value": 0}, {"measurement": "No of rats with P.carinii Pneumonitis 2+", "setting": "Pneumocystis carinii; [6]", "value": 0}, {"measurement": "No of rats with P.carinii Pneumonitis 3+", "setting": "Pneumocystis carinii; [6]", "value": 0}, {"measurement": "No of rats with P.carinii Pneumonitis None", "setting": "Pneumocystis carinii; [6]", "value": 8}, {"measurement": "No of rats with PCP/No of rats tested", "setting": "Pneumocystis carinii; [6]", "value": "0/8"}, {"measurement": "No.with P. carinii Pneumonitis 1+", "setting": "Pneumocystis carinii; 200 mg per kg/day, rations", "value": 0}, {"measurement": "No.with P. carinii Pneumonitis 2+", "setting": "Pneumocystis carinii; 200 mg per kg/day, rations", "value": 0}, {"measurement": "No.with P. carinii Pneumonitis 3+", "setting": "Pneumocystis carinii; 200 mg per kg/day, rations", "value": 0}, {"measurement": "No.with P. carinii Pneumonitis None", "setting": "Pneumocystis carinii; 200 mg per kg/day, rations, Gomori-Grocott stain", "value": 9}, {"measurement": "No.with P. carinii Pneumonitis Total", "setting": "Pneumocystis carinii; 200 mg per kg/day, rations", "value": "0/9"}, {"measurement": "pIC50", "setting": "Plasmodium Falciparum", "value": 8.70}, {"measurement": "ED50", "setting": "Plasmodium yoelii; [3]", "value": 0.03, "unit": "mg/kg"}]}, {"smiles": "CC(=O)OC1=C([C@H]2CC[C@H](c3ccc(Cl)cc3)CC2)C(=O)c2ccccc2C1=O", "note": "[Example 5, 2-Acetoxy-3-[trans-4-(4-chlorophenyl)cyclohexyl]-1,4-naphthoquinone]", "values": [{"measurement": "pIC50", "setting": "Plasmodium Falciparum", "value": 7.17}, {"measurement": "ED50", "setting": "Plasmodium yoelii; [3]", "value": 0.12, "unit": "mg/kg"}, {"measurement": "water-solubility", "setting": "[1]", "value": "improved"}]}, {"smiles": "CCOC(=O)OC1=C([C@H]2CC[C@H](c3ccc(Cl)cc3)CC2)C(=O)c2ccccc2C1=O", "note": "[Example 6, 2-Ethoxycarbonyloxy-3-[trans-4-(4-chlorophenyl)cyclohexyl]-1,4 naphthoquinone]", "values": [{"measurement": "pIC50", "setting": "Plasmodium Falciparum", "value": 7.10}, {"measurement": "ED50", "setting": "Plasmodium yoelii; [3]", "value": 0.09, "unit": "mg/kg"}]}, {"smiles": "NC1=C([C@H]2CC[C@H](c3ccc(Cl)cc3)CC2)C(=O)c2ccccc2C1=O", "note": "[Example 3, 2-Amino-3-[trans-4-(4-chlorophenyl)cyclohexyl]-1,4-naphthoquinone]", "values": [{"measurement": "pIC50", "setting": "Plasmodium Falciparum", "value": 5.94}, {"measurement": "ED50", "setting": "Plasmodium yoelii; [3]", "value": 1.26, "unit": "mg/kg"}]}, {"smiles": "N=C(N)c1ccc(OCCCCCOc2ccc(C(=N)N)cc2)cc1", "note": "[pentamidine]", "values": [{"measurement": "incidence of adverse reactions", "setting": "[2]; AIDS patients", "value": "around 50%"}, {"measurement": "effective in AIDS patients", "setting": "[2]; treatment of Pneumocystis carinii pneumonia", "value": "50-70%"}]}, {"smiles": "COC1=C([C@H]2CC[C@H](c3ccc(Cl)cc3)CC2)C(=O)c2ccccc2C1=O", "note": "[Example 2, 2-Methoxy-3-[trans-4-(4-chlorophenyl)cyclohexyl]-1,4-naphthoquinone]", "values": [{"measurement": "pIC50", "setting": "Plasmodium Falciparum", "value": 6.44}, {"measurement": "ED50", "setting": "Plasmodium yoelii; [3]", "value": 5.8, "unit": "mg/kg"}]}]}
